Read-outs that look alike come from different tables or passages of the source.
Experiments:
[1] = tested on: mature (MII) human oocytes
Method: Measurements of oocyte permeability were conducted at different temperatures on an inverted microscope (Leica DMIRB, China). Perfusion of the oocytes was performed as previously described and validated in the laboratory Oocytes were placed in 20 μl drops of Hepes-HTF (Irvine Scientific) with 10% SSS in a petri dish covered with mineral oil (Vitrolife; Englewood, Colo., USA) to prevent evaporation. An initial photograph was taken of the oocyte in order to calculate the initial volume. […] When the perfusate merged with the 20 μl drop of base medium, photographs of the oocytes were taken at regular intervals.
The oocytes were held in place during the experiment using a glass holding pipette (Humagen Holding MPH-MED-30, I.D.-20 μm, O.D.-95˜120 μm) and micromanipulators (#RI MODEL SAS11/2-E, Integra Research Instruments, UK). For temperatures lower than ambient, a 35 mm Petri dish (Falcon 35-1008) was placed in an aluminum chamber that was cooled with circulating liquid via a cooling bath (Fisher model 9109) and pumped through the aluminum chamber using polymer tubing. The bottom of the dish was wrapped in aluminum foil and a square hole was cut in the foil to facilitate viewing the oocyte. This was performed so the dish would fit snugly in the chamber to facilitate heat transfer from the chamber to the dish. The temperature in the cooling bath was set to either −2° C. or +7° C. for the 2 cold temperatures. The actual temperature of the media in the dish was warmer than this due to heat exchange of the fluid as it circulated through the tubing and chamber.
For the third treatment, oocyte permeability was measured at ambient temperature (˜25° C.) where the perfusion took place in a 50 mm Petri dish (Falcon 35-1006) placed on the microscope stage with no heating or cooling. Finally, the warmest temperature was attained in a similar fashion but the temperature of the media was raised by using a microscope stage warmer set to 39° C. Variations in temperature of the media occurred due to day-to-day fluctuations in temperature in the laboratory. However, the actual temperature of the media for each replicate during the experiment was measured using a type-T (copper/constantan) thermocouple and an electronic thermometer (model 51 II, Fluke Corporation, Everett, Wash. USA).
After the experimental run, the oocyte was released from the holding pipette on the micromanipulator and the temperature of the medium was measured such that the thermocouple was visible in the microscope field of view, ensuring that the temperature was recorded at the exact location of the oocyte. […] The exact time of these transitions was recorded during each replication and was accounted for during the calculations to estimate the permeability parameters. […]

[2] = tested on: mouse oocytes; settings: cited from earlier work
[3] = cited from earlier work; for concentration required to maintain a vitreous state during slow warming: aqueous solution with this compound as the only solute; for total solute required to maintain a vitreous state during cooling and warming: prior analysis
[4] = tested on: Rhesus macaque oocytes; settings: single-step addition and removal; cited from earlier work
[5] = tested on: bovine oocytes; settings: 4 or 5.5 mol/L EG in a single step; cited from earlier work
[6] = Differential scanning calorimetry of EG/sucrose/saline solutions (vitreous state during cooling and warming); assay type: physicochemical; settings: for total concentration of the solution necessary to prevent crystallization during warming: cooling 100° C/min, warming 10° C/min; for DSC thermogram during warming: sucrose 0.3 molal with EG
Method: This experiment was designed to determine the amount of EG necessary to maintain an ice-free (i.e. vitreous) state during cooling to cryogenic temperatures ([…]; below the glass transition temperature of these solutions) and warming, when the sucrose concentration ranged from 0.1 to 1.1 molal (mol/kg; equivalent to 0.053 to 0.53 molar (mol/L)). In studies of the physical properties of solutions, components of the solutions are usually measured by weight, not volume. […] Furthermore, concentrations are usually reported in weight fractions (weight percent (w/w, or wt %)). These conventions were used in this experiment and references was made to the equivalent molar concentrations when comparing the results to previously published studies.
A Diamond Differential Scanning Calorimeter (DSC; Perkin-Elmer Waltham, Mass., USA) outfitted with an autosampler and CryoFill liquid nitrogen cooling system was employed for the thermal analysis. The solutions were composed of water (5 g) and NaCl (0.0045 g) to which various amounts of sucrose and EG were added. For this experiment, spectrophotometric grade (>99%) EG was utilized. All components were weighed on an analytical balance. Errors between the target and actual weight percent were less than 0.1% in all instances. To test the vitrification properties of the solutions, 5 μl (˜0.0055 grams) were loaded into standard 10 μl aluminum DSC pans (Perkin-Elmer Part # BO14-3015), and the pans were hermetically sealed. Embryo-grade water and HPLC-grade (>99.9% purity) cyclohexane were also run as calibration standards.
Analyses were conducted at a cooling rate of 100° C./min and a warming rate of 10° C./min to be consistent with previous studies. […] Random noise was estimated by determining the standard deviation of the actual signal from the expected value from the polynomial fit. When an apparent crystallization peak followed by a melting peak in the expected temperature range was noted, and the maximum point on the melting peak was beyond three standard deviations from the expected value, it was classified as a thermal event. Only when three independent solutions confirmed the absence of crystallization and melting was the solution classified as having achieved and maintained a vitreous state throughout the cooling and warming procedure.

Compound: OCCO [EG, ethylene glycol]
- Lp (hydraulic conductivity) in the presence of EG ([1]; 6.7° C): 0.15 μm/(min·atm)
- Lp (hydraulic conductivity) in the presence of EG ([1]; 35.7° C): 1.17 μm/(min·atm)
- activation energy for Lp ([1]; Arrhenius plot, 95% CI 13.19 to 15.65): 14.42 kcal/mol
- activation energy for Ps ([1]; Arrhenius plot, 95% CI 19.49 to 22.91): 21.20 kcal/mol
- effect on development compared to untreated oocytes ([2]; 6 mol/L EG for 5 minutes): no effect on development
- reduction of developmental potential ([2]; 7 mol/L EG, 2-step exposure): 30%
- mean blastocyst development rate ([2]; 8 mol/L EG, exposure less than 1 minute, controls ~62%): ~50%
- concentration required to maintain a vitreous state during slow warming [3]: ~59 wt %
- EG concentration necessary to maintain a vitreous state ([3]; cooling and warming at the DSC rates (100 and 10° C/min)): 59 wt %
- EG concentration that should maintain a vitreous state ([3]; warming rate on the order of 1×10^3° C/min): 50 wt %
- EG concentration that should maintain a vitreous state ([3]; warming rate on the order of 1×10^4° C/min): 48 wt %
- EG concentration causing membrane damage [4]: ≥ 3 mol/L
- effect on developmental potential [5]: significant reduction

Compound: OC[C@H]1O[C@@](CO)(O[C@H]2O[C@H](CO)[C@@H](O)[C@H](O)[C@H]2O)[C@@H](O)[C@@H]1O [sucrose]
- concentration required to maintain a vitreous state during slow warming [3]: > 70 wt %
- total solute required to maintain a vitreous state during cooling and warming ([3]; sucrose 0 mol/kg with EG): 59 wt %
- total solute required to maintain a vitreous state during cooling and warming ([3]; sucrose 0.1 mol/kg with EG): 60 wt %
- total solute required to maintain a vitreous state during cooling and warming ([3]; sucrose 0.5 mol/kg with EG): 61 wt %
- total solute required to maintain a vitreous state during cooling and warming ([3]; sucrose 1.0 mol/kg with EG): 65 wt %
- total concentration of the solution necessary to prevent crystallization during warming ([6]; 0.1 mol/kg sucrose with EG in saline): 59 wt %
- total concentration of the solution necessary to prevent crystallization during warming ([6]; 0.3 mol/kg sucrose with EG in saline): 59 wt %
- total concentration of the solution necessary to prevent crystallization during warming ([6]; 0.5 mol/kg sucrose with EG in saline): 59 wt %
- total concentration of the solution necessary to prevent crystallization during warming ([6]; 0.7 mol/kg sucrose with EG in saline): 60 wt %
- total concentration of the solution necessary to prevent crystallization during warming ([6]; 0.9 mol/kg sucrose with EG in saline): 61 wt %
- total concentration of the solution necessary to prevent crystallization during warming ([6]; 1.1 mol/kg sucrose with EG in saline): 61 wt %
- DSC thermogram during warming ([6]; total solute 55% weight): crystallization and melting peaks
- DSC thermogram during warming ([6]; total solute 59 weight %): no evidence of crystallization and melting

— patent US20080268492A1, “Methods for Determining Optimal Techniques for Vitrification of Isolated Cells” (THE CURATORS OF THE UNIVERSITY OF MISSOURI, priority 2007, published 2008)
